# Assays:
# [1] = molecular target: T1, α1H subunit of a calcium channel of a human heart (Homo sapiens, UniProt O95180); test: Whole cell current recording, Xenopus oocytes transfected with α1H subunit; assay type: cell-based
# T1 construct: expressed in transfected cells; host or cells: Xenopus oocytes (so in the source), pcDNA3 plasmid
# Description: Xenopus oocytes were transfected with the α1H subunit of a calcium channel of a human heart prepared in accordance with the procedure described by Cribbs, et al. in Circulation Research, 1998, 83, 103-109, the contents of which are incorporated by reference. The α1H plasmid was obtained by cloning the α1H sequence into the EcoRV-X baI site of the transfection vector pcDNA3, in accordance with the procedure described in the Cribbs, et al. article. Xenopus oocyte cells (1×10^5 per 35 mm dish) were transfected with 2 μg of alpha 1H-Tx plasmid. […] The internal pipette solution contained (mmol/L) CsCl 55, CS SO3 75, MgCl2 10, EGTA 0.1, and HEPES 10 (pH adjusted to 7.2 with (CsOH). Currents were recorded using an Axopatch 200A, a Digidata 1200 A/D converter and pCLAMP software (Axon Instruments, Inc.).
# The current of the cell in the depolarized cell was recorded over time (control). Within a few minutes after the control plot was recorded, the cells were again depolarized, but this time, the bath contained in addition 10 μM TH-1177. The current was recorded for the same length of time as the control. The current was recorded at about zero pA. Then the cells in the bath containing 10 μM TH-1177 were depolarized again, but this time the bath medium containing TH-1177 was aspirated out and replaced with fresh calcium medium depolarizing medium and the current was measured.
# [2] = test system: Ca2+ entry in LNCaP cells; test: Measurement of intracellular Ca2+ concentration (Ca2+ entry), LNCaP cells; assay type: cell-based, human
# Protocol: Cells were incubated in growth media containing 1 μM of the acetoxy-methyl ester of the Ca^2+-sensitive fluorescent dye indo-1 (indo-1/AM, Molecular Probes, Eugene, Oreg.) for 1 hour at 37° C. Cells were washed three times in buffer A (10 mM HEPES, pH 7.4, 1 mM MgCl2, 3 mM KCl, 1 mM CaCl2, 140 mM NaCl, 0.1% glucose, 1% fetal bovine serum) and suspended to a final concentration of 10^6/ml. Prior to stimulation, cells were warmed to 37° C. Prior to stimulation, cells were also incubated with drug, calcium channel antagonists and the IC50 values were determined. Changes in [Ca^2+] were monitored in an SLM 8100C spectrofluorometer (SLM/Aminco, Urbana, Ill.) using previously published methods, Haverstick, et al. (1998) Cell Calcium, 23: 361-368; Densmore, et al. (1996) Am. J. Physiol., 271:C1494-1503, incorporated herein by reference.
# Calcium influx into the cell is suitably stimulated using either (1) a physiological ligand or (2) an endoplasmic reticulum (ER) ATPase inhibitor. Preferably, a physiological ligand is used to stimulate calcium influx into the cell.
# Endoplasmic Reticulum (ER) ATPase inhibitor, as used herein, is any compound which stimulates the release of calcium from the endoplasmic reticulum into the cytoplasm, which, in turn, activates calmodulin, which, in turn, activates calcium entry into the cell (for review of ER ATPase inhibitors, see Thastrup, O, Agents and Actions (1990), 29:8-15; Inesi and Sagara, Archives of Biochem. and Biophys., 298:313-7 and Darby, et al., Biological Signals (1993), 2:293-304). Preferred ER ATPase inhibitors include cyclopiazonic acid (available from Sigma, St. Louis, Mo.) and thapsigargin (available from Sigma).
# TH-1177 blocked capacitative Ca^2+ entry in human prostate cancer cells. In electrically non-excitable cells, Ca^2+ influx is triggered by release of Ca^2+ from its internal storage depot by a phenomenon that has been called “capacitative”Ca^2+ entry (Putney, J. W., Jr. (1986) Cell Calcium, 7:1-12; Haverstick, et al. (1993) Mol. Biol. Cell, 4: 173-184; Kohn, et al. Proc. Natl. Acad. Sci. USA, 92: 1307-1311, incorporated herein by reference). Capacitative entry can be initiated by treatment of cells with thapsigargin. Thapsigargin inhibits the Ca^2+-ATPase of the endoplasmic reticulum allowing uncompensated leak of Ca^2+ from this compartment into the cytosol thereby causing Ca^2+ entry in the absence of engagement of a specific receptor. (Thastrup, et al. (1990) Proc. Natl. Acad. Sci. USA, 87: 2466-2470; Takemura, et al. (1989) J. Biol. Chem. 264: 12266-12271, incorporated herein by reference).
# The P2 purinergic receptor is linked to activation of the Ca^2+ entry pathway in many types of cells including prostate cancer cells (Fang, et al. (1992) J. Clin. Invest. 89: 191-196). […]
# T1 sequence (O95180 whole entry): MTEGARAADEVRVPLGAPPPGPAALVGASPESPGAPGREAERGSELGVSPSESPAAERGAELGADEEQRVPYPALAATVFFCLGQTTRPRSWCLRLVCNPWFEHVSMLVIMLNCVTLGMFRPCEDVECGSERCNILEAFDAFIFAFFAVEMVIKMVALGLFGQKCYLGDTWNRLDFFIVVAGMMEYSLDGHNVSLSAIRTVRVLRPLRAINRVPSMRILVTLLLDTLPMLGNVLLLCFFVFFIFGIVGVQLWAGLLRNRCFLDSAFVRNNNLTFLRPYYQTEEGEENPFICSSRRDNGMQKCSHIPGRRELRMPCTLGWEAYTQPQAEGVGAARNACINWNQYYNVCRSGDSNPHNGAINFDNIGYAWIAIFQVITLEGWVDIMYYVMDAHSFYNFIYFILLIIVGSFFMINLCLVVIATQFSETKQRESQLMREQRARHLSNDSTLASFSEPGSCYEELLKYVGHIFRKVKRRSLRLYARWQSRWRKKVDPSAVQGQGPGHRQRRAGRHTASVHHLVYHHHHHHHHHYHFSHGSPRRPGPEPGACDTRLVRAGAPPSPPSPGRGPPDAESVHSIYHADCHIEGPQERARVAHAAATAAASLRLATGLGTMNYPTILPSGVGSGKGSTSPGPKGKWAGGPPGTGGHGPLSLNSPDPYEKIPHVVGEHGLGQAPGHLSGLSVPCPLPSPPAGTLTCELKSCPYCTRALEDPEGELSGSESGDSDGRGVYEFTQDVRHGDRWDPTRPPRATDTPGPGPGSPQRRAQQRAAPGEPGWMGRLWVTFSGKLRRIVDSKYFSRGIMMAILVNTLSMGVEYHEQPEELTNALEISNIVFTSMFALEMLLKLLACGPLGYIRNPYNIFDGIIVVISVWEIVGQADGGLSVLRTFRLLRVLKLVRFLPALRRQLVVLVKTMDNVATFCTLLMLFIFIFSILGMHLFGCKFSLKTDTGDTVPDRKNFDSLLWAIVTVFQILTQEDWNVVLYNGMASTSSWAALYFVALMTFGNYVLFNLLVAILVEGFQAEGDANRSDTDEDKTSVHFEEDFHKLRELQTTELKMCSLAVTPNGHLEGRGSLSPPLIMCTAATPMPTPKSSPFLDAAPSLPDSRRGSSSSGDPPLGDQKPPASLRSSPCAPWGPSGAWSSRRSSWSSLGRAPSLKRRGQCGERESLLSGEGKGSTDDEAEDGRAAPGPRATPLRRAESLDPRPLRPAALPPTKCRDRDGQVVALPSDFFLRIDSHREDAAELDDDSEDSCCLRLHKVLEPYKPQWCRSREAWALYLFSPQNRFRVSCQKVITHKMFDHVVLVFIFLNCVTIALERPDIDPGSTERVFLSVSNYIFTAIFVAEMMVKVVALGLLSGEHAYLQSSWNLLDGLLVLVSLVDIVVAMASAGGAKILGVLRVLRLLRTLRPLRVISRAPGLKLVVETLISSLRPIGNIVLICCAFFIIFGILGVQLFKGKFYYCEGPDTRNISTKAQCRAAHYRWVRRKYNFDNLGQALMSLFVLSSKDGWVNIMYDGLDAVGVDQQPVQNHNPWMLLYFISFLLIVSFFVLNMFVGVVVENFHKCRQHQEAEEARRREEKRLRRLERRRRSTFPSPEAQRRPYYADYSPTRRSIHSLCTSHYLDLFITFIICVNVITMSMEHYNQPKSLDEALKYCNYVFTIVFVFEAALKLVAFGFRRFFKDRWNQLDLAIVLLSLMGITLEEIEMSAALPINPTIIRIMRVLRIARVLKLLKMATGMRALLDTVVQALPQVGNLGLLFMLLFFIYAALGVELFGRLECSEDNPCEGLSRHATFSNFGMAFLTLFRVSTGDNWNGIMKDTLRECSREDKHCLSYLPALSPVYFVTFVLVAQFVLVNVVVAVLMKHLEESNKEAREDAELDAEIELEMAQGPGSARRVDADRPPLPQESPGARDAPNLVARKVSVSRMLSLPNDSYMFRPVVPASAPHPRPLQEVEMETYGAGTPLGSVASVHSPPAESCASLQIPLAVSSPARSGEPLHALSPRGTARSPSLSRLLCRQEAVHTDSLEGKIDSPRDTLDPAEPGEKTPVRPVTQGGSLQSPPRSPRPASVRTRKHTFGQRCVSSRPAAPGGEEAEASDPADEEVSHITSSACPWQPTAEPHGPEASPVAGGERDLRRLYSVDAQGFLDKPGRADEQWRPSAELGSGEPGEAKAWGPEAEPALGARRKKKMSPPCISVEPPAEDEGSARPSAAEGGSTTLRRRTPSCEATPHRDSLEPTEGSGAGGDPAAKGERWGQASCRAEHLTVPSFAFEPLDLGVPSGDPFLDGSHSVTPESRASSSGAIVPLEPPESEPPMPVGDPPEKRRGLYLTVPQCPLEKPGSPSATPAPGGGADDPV
compound,measurement,setting,value
COc1ccc(CCN2CCC[C@H]2COC(c2ccccc2)c2ccc(Cl)cc2)cc1 (stereo partly drawn) [TH-1177],Current in depolarized α1H-transfected cells,[1]; 10 μM TH-1177 in bath,about zero
same,Ability of calcium to cross the cell membrane,"[1]; α1H-transfected Xenopus oocytes, 10 μM, restored on washout",inhibits
same,IC50,"[2]; EGTA chelation of extracellular Ca2+ considered 100% inhibition, read-out: IC50 for blocking Ca2+ entry, LNCaP cells",3000 nM
same,Effect on increase in [Ca2+]i stimulated by thapsigargin,"[2]; LNCaP, 300 nM thapsigargin, drug added before stimulus",dose dependent inhibition
same,Effect on rise in [Ca2+]i stimulated by ATP,"[2]; LNCaP, 1 mM ATP, 10 μM TH-1177 added prior",inhibited
same,Effect on release of Ca2+ from the internal storage pool,"[2]; LNCaP, EGTA in medium, 1 mM ATP",no effect

# Reference: US6946475B1, “Anticancer calcium channel blockers” (University of Virginia Patent Foundation, priority 1999, dated 2005)
